Patent US20150351401A1 (priority 2012, published 2015)
Where two headings read alike, the source gives them in different places.

Tests used:
Puccinia recondita = assay: CG1 Preventative control of brown rust on wheat caused by Puccinia recondita (Puccrt P1), greenhouse; format: in vivo; settings: 75 ppm spray, wheat seedlings, inoculated next day; % diseased leaf area; untreated control 90
Protocol: The Spray Solutions were Prepared in Several Steps:
The stock solution were prepared: a mixture of acetone and/or dimethylsulfoxide and the wetting agent/emulsifier Wettol, which is based on ethoxylated alkylphenoles, in a relation (volume) solvent-emulsifier of 99 to 1 was added to the initial weight of the compound to give a total of 5 ml. Water was then added to total volume of 100 ml. This stock solution was diluted with the described solvent-emulsifier-water mixture to the given concentration.
CG1 Preventative Control of Brown Rust on Wheat Caused by Puccinia recondita (Puccrt P1)
The first two developed leaves of pot-grown wheat seedling were sprayed to run-off with an aqueous suspension, containing the concentration of active ingredient or their mixture as described below. The next day the plants were inoculated with spores of Puccinia recondita. To ensure the success the artificial inoculation, the plants were transferred to a humid chamber without light and a relative humidity of 95 to 99% and 20 to 24° C. for 24 h. Then the trial plants were cultivated for 6 days in a greenhouse chamber at 20-24° C. and a relative humidity between 65 and 70%. The extent of fungal attack on the leaves was visually assessed as % diseased leaf area.

Pyricularia oryzae = format: cell-based
[1] = comparison CM1, 7 days after inoculation
[2] = comparison CM2, 7 days after inoculation

OC(Cc1ccc(-c2ccc(Cl)cc2)cc1Cl)(Cn1cncn1)C1(Cl)CC1 (stereo not drawn) [I-3, 1-[2-chloro-4-(4-chlorophenyl)phenyl]-2-(1-chlorocyclopropyl)-3-(1,2,4-triazol-1-yl)propan-2-ol]
Disease (%) at 75 ppm Puccrt P1 (Puccinia recondita): 20%

OC(Cc1ccc(Oc2ccc(Cl)cc2)cc1Cl)(Cn1cncn1)C1(Cl)CC1 (stereo not drawn) [I-4]
Disease (%) at 75 ppm Puccrt P1 (Puccinia recondita): 20%

OC(Cc1ccc(Oc2ccc(Cl)cc2)cc1Cl)(Cn1ncnc1S)C1(Cl)CC1 (stereo not drawn) [I-5]
Growth (%) at 8 ppm Pyrior (Pyricularia oryzae; [1]): 0%
Growth (%) at 8 ppm Pyrior (Pyricularia oryzae; [2]): 0%

OC(Cc1ccc(-c2ccc(Cl)cc2)cc1Cl)(Cn1ncnc1S)C1(Cl)CC1 (stereo not drawn) [I-6]
Growth (%) at 8 ppm Pyrior (Pyricularia oryzae; [1]): 0%

OC(Cc1ccc(Oc2ccc(Cl)cc2)cc1Cl)(Cn1cncn1)C1CC1 (stereo not drawn) [I-7, 1-[2-Chloro-4-(4-chlorophenoxyl)phenyl]-2-cyclopropyl-3-(1,2,4-triazol-1-yl)propan-2-ol]
Growth (%) at 8 ppm Pyrior (Pyricularia oryzae; [2]): 0%

OC(Cc1ccccc1Cl)(Cn1ncnc1S)C1(Cl)CC1 (stereo not drawn) [drawing 129, reference compound]
Growth (%) at 8 ppm Pyrior (Pyricularia oryzae; [1]): 41%

OC(Cc1ccccc1Cl)(Cn1ncnc1S)C1(Cl)CC1 (stereo not drawn) [drawing 135, reference compound]
Growth (%) at 8 ppm Pyrior (Pyricularia oryzae; [2]): 41%

OC(Cc1ccccc1Cl)(Cn1cncn1)C1(Cl)CC1 (stereo not drawn) [reference compound]
Disease (%) at 75 ppm Puccrt P1 (Puccinia recondita): 50%
